Results: patent US4496551A (priority 1983, dated 1985)

Tests used:
Phytophthora infestans = experiment: whole plant or invertebrate; format: in vivo; conditions: Phytophthora infestans, in Solanum lycopersicum, 168 h, read-out: % Control of Tomato Late Blight
Venturia inaequalis = experiment: apple scab control on apple seedlings; format: in vivo; conditions: Venturia inaequalis
Summary of the method: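 Apple seedlings sprayed to run-off with 100 ppm compound suspension (6% acetone, 250 ppm TREM 014 surfactant). Inoculated next day with Venturia inaequalis spores; 24 hours at 20° in saturated humidity, then 10-12 days in growth room. Scab lesions compared with untreated plants.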

Monilinia fructicola = experiment: stone fruit brown rot colony growth inhibition on canned peach halves; format: cell-based; conditions: 120 h, dipped 3 minutes, five days, percent growth inhibition of colonies, read-out: % Control Brown Rot
From the text: Several compounds of the previous examples were again dissolved in acetone in an amount equal to 5% of the final volume and then suspended at a concentration of 100 ppm in purified water containing 700 ppm of the surfactant TREM 014 (polyhydric alcohol esters). Canned peach halves were dipped in this suspension for three minutes and then placed to air dry in sterile containers. Upon drying, the peach halves were inoculated with two pieces of Monilinia fructicola, causal agent of stone fruit brown rot, mycelium and then incubated in the sterile containers for five days. At that time the radii of the colonies' growth were measured on each peach. […] Percent disease contol (percent growth inhibition of colonies on treated peaches as compared to that of colonies on untreated peaches) is expressed in the table below.

Pythium aphanadermatum [1] = experiment: Pythium control on coated corn seeds; format: in vivo; conditions: 504 h, 2 gm/kg seed, 49° F. 2 weeks then 70° F. 1 week
Description: Several compounds of the previous examples were incorporated into a proprietary formulation and used to coat corn seeds at a rate of 2 gm/kg seed. After being thoroughly coated, the seeds were allowed to air dry at room temperature. The seeds were then planted into soil amended with a mixture of the fungus Pythium aphanadermatum, sand, and corn meal at a rate sufficient to kill most untreated seeds. The seeds were held at 49° F. for 2 weeks and then at 70° F. for 1 additional week. After this time disease ratings were made.

Pythium aphanadermatum [2] = experiment: Pythium control on coated cotton seeds; format: in vivo; conditions: 168 h, 2 gm/kg seed, 1 week
From the text: Several compounds of the previous examples were incorporated into a proprietary formulation and used to coat cotton seeds at a rate of 2 gm/kg seed. After being thoroughly coated, the seeds were allowed to air dry at room temperature. The cotton seeds were then planted into soil amended with the fungus Pythium aphanadermatum, sand, and corn meal at a rate sufficient to kill most untreated seeds. The seeds were held at room temperature for 1 week, after which time disease ratings were made.

Helminthosporium maydis = experiment: southern corn leaf blight control on corn seedlings; format: in vivo; conditions: Bipolaris maydis, 168 h
Summary of the method: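 Corn seedlings were sprayed to run-off with 100 ppm compound (6% acetone, 250 ppm TREM 014), inoculated next day with H. maydis spores, then kept 24 h at 20° in saturated humidity and 7 more days in a growth room. Lesions were rated as disease score.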

Cercospora arachidicola = experiment: peanut early leafspot control on peanut seedlings; format: in vivo; conditions: Mycosphaerella arachidis, 336 h
Summary of the method: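 Compounds dissolved in acetone (6% of final volume) and suspended at 100 ppm in water with 250 ppm TREM 014, sprayed to run-off on seedlings. Cercospora arachidicola inoculated next day; 24 h saturated humidity at 27°, then 14 days growth room before disease and leafspot rating.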

5 Phytophthora species = format: cell-based; conditions: 200.0 ppm in agar, 22° C., 6 days; controlled = radial growth 1 mm or less
Pyricularia oryzae = experiment: whole plant or invertebrate; format: in vivo; conditions: 168 h, read-out: % Control of Rice Blast
Uromyces phaseoli = experiment: bean rust control on bean seedlings; format: in vivo; conditions: 20 ppm
Description: Compounds of the previous examples were again dissolved in acetone in an amount equal to 6% of the final volume and then suspended at a concentration of 20 ppm in purified water containing 250 ppm of the surfactant TREM 014 (polyhydric alcohol esters). This suspension was sprayed to the point of run-off on bean seedlings. The following day, the plants were inoculated with a spore suspension of the fungus Uromyces phaseoli, causal agent of bean rust, and incubated in a saturated humidity chamber at 20° for 24 hours and then in a greenhouse for 7 days. Disease ratings were then made. Treated plants from successful treatments had few or no rust pustules in contrast to untreated plants which were covered with rust pustules.

[3] = test system: Puccinia recondita var. tritici; experiment: wheat leaf rust control on wheat seedlings; format: in vivo; conditions: for pest or weed control at 100 ppm: sprayed day before inoculation
Summary of the method: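 Compounds at 100 ppm (6% acetone, 250 ppm polyhydric alcohol ester surfactant in water) sprayed to run-off on wheat seedlings; inoculated next day with P. recondita spores. Kept 24 h at saturated humidity, 20°, then 7 days in growth room before rust pustule rating.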

Erysiphe cichoracearum = experiment: cucumber powdery mildew control on cucumber seedlings; format: in vivo; conditions: Golovinomyces cichoracearum, 168 h, 7 days
Summary of the method: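 Compounds at 100 ppm in water with 6% acetone and 250 ppm TREM 014 surfactant, sprayed to run-off on cucumber seedlings. Inoculation with Erysiphe cichoracearum spores the following day; disease rated after 7 days in a growth room against untreated plants.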

Rhizoctonia solani = experiment: rice sheath blight control on rice seedlings; format: in vivo; conditions: Rhizoctonia solani, 168 h, 7 days
Summary of the method: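 Rice seedlings sprayed to run-off with 100 ppm compound suspension (6% acetone, 250 ppm surfactant), then inoculated next day with bran/mycelium of Rhizoctonia solani. After 7 days in a growth room, sheath blight disease was rated.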

cucumber seedlings = experiment: phytotoxicity on cucumber seedlings; format: in vivo; parameters: key: G: growth reduction; H: hormonal effects; conditions: 100 ppm
Erysiphe graminis = experiment: barley powdery mildew control on barley seedlings; format: in vivo; conditions: Blumeria graminis, 168 h; for pest or weed control at 100 ppm: 7 days
Description: Several compounds of the previous examples were again dissolved in acetone in an amount equal to 6% of the final volume and then suspended at a concentration of 100 ppm in purified water containing 250 ppm of the surfactant TREM 014 (polyhydric alcohol esters). This suspension was sprayed to the point of run-off on barley seedlings. The following day, the plants were inoculated with a spore suspension of the fungus Erysiphe graminis, causal agent of barley powdery mildew, and incubated in a growth room for 7 days. Disease ratings were then made. Treated plants had little or no powdery mildew in contrast to untreated plants which were covered with powdery mildew.

apple seedlings = experiment: phytotoxicity on apple seedlings; format: in vivo; parameters: key: B: Phytotoxic burn; conditions: 100 ppm
Description: Compounds of this invention were dissolved in acetone in an amount equal to 6% of the final volume and then suspended at a concentration of 100 ppm in purified water containing 250 ppm of the surfactant TREM 014 (polyhydric alcohol esters). This suspension was sprayed to the point of run-off on apple seedlings. The following day, the plants were inoculated with a spore suspension of the fungus Venturia inaequalis, causal agent of apple scab, and incubated in a saturated humidity chamber at 20° for 24 hours and then in a growth room for an additional 10-12 days. Treated plants from successful treatments had few or no apple scab lesions when compared to untreated plants which were covered with scab lesions.

peanut seedlings = experiment: phytotoxicity on peanut seedlings; format: in vivo; parameters: key: B: Phytotoxic burn; conditions: 100 ppm
Description: Compounds of the previous examples were again dissolved in acetone in an amount equal to 6% of the final volume and then suspended at a concentration of 100 ppm in purified water containing 250 ppm of the surfactant TREM 014 (polyhydric alcohol esters). This suspension was sprayed to the point of run-off on peanut seedlings. The following day, the plants were inoculated with a spore suspension of Cercospora arachidicola, causal agent of peanut early leafspot, and incubated in a saturated humidity chamber at 27° for 24 hours and then in a growth room for an additional 14 days, when disease ratings were made. Treated plants from successful treatments had few or no leafspots while the untreated plants had numerous leafspots on each leaf.

Compound: C[Si](C)(Cn1ccnc1)c1ccc(-c2ccccc2)cc1 [(1,1'-Biphenyl-4-yl)dimethyl(1H-imidazol-1-ylmethyl)silane]
- pest or weed control at 100 ppm (Phytophthora infestans): 50%
- pest or weed control at 100 ppm (Venturia inaequalis): 80%
- inhibition of growth at 100 ppm (Monilinia fructicola): 83%
- pest or weed control at 2000 mg/kg (Pythium aphanadermatum [1]): 32%
- pest or weed control at 2000 mg/kg (Pythium aphanadermatum [2]): 18%
- pest or weed control at 100 ppm (Helminthosporium maydis): 90%
- pest or weed control at 100 ppm (Cercospora arachidicola): 100%
- No. of 5 Phytophthora species controlled in vitro (5 Phytophthora species): 3
- pest or weed control at 100 ppm (Pyricularia oryzae): 0%
- % Control Bean Rust (Uromyces phaseoli): 100%
- pest or weed control at 100 ppm [3]: 100%
- pest or weed control at 100 ppm (Erysiphe cichoracearum): 100%
- pest or weed control at 100 ppm (Rhizoctonia solani): 0%

Compound: C[Si](C)(Cn1ccnc1)c1ccc(Cl)cc1Cl [(2,4-Dichlorophenyl)dimethyl(1H-imidazol-1-ylmethyl)silane]
- Phytotoxicity (growth reduction or hormonal effects) (cucumber seedlings): H
- pest or weed control at 100 ppm (Phytophthora infestans): 0%
- pest or weed control at 100 ppm (Venturia inaequalis): 100%
- inhibition of growth at 100 ppm (Monilinia fructicola): 100%
- pest or weed control at 100 ppm (Helminthosporium maydis): 70%
- pest or weed control at 100 ppm (Cercospora arachidicola): 100%
- No. of 5 Phytophthora species controlled in vitro (5 Phytophthora species): 5
- pest or weed control at 100 ppm (Erysiphe graminis): 100%
- pest or weed control at 100 ppm (Pyricularia oryzae): 0%
- % Control Bean Rust (Uromyces phaseoli): 83%
- pest or weed control at 100 ppm [3]: 90%
- pest or weed control at 100 ppm (Erysiphe cichoracearum): 100%
- pest or weed control at 100 ppm (Rhizoctonia solani): 0%

Compound: CCCC[Si](C)(Cn1ccnc1)c1ccc(Cl)cc1Cl (centres unmarked) [Butyl(2,4-dichlorophenyl)(1H-imidazol-1-ylmethyl)methylsilane]
- Phytotoxicity (growth reduction or hormonal effects) (cucumber seedlings): G
- pest or weed control at 100 ppm (Phytophthora infestans): 0%
- pest or weed control at 100 ppm (Venturia inaequalis): 100%
- pest or weed control at 100 ppm (Helminthosporium maydis): 80%
- pest or weed control at 100 ppm (Cercospora arachidicola): 100%
- Phytotoxic burn (apple seedlings): B
- pest or weed control at 100 ppm (Pyricularia oryzae): 0%
- pest or weed control at 100 ppm [3]: 100%
- pest or weed control at 100 ppm (Erysiphe cichoracearum): 100%
- pest or weed control at 100 ppm (Rhizoctonia solani): 90%

Compound: C[Si](C)(Cn1ccnc1)C1CCCCC1 [Cyclohexyl(dimethyl(1H-imidazol-1-ylmethyl)silane]
- Phytotoxicity (growth reduction or hormonal effects) (cucumber seedlings): G
- pest or weed control at 100 ppm (Venturia inaequalis): 100%
- pest or weed control at 100 ppm (Helminthosporium maydis): 50%
- pest or weed control at 100 ppm (Cercospora arachidicola): 0%
- Phytotoxic burn (apple seedlings): B
- pest or weed control at 100 ppm [3]: 0%
- pest or weed control at 100 ppm (Erysiphe cichoracearum): 100%
- pest or weed control at 100 ppm (Rhizoctonia solani): 0%

Compound: C[Si](C)(Cn1ccnc1)c1ccc(C(F)(F)F)cc1 [Dimethyl(1H-imidazol-1-ylmethyl)(4-trifluoromethylphenyl)silane]
- Phytotoxic burn (peanut seedlings): B
- pest or weed control at 400 ppm (Venturia inaequalis; 400 ppm): 60%
- pest or weed control at 100 ppm (Cercospora arachidicola): 36%
- pest or weed control at 100 ppm (Erysiphe graminis): 100%
- pest or weed control at 400 ppm [3]: 100%
- pest or weed control at 100 ppm (Erysiphe cichoracearum): 100%

Compound: C[Si](C)(Cn1ccnc1)c1ccc(F)cc1 [Dimethyl(4-fluorophenyl)(1H-imidazol-1-ylmethyl)silane]
- Phytotoxic burn (peanut seedlings): B
- Phytotoxicity (growth reduction or hormonal effects) (cucumber seedlings): G
- pest or weed control at 100 ppm (Phytophthora infestans): 0%
- pest or weed control at 100 ppm (Venturia inaequalis): 0%
- pest or weed control at 2000 mg/kg (Pythium aphanadermatum [1]): 15%
- pest or weed control at 2000 mg/kg (Pythium aphanadermatum [2]): 0%
- pest or weed control at 100 ppm (Helminthosporium maydis): 0%
- pest or weed control at 100 ppm (Cercospora arachidicola): 60%
- pest or weed control at 100 ppm (Pyricularia oryzae): 0%
- pest or weed control at 100 ppm [3]: 80%
- pest or weed control at 100 ppm (Erysiphe cichoracearum): 100%
- pest or weed control at 100 ppm (Rhizoctonia solani): 0%

Compound: CCCCCCCCCCCC[Si](C)(C)Cn1ccnc1 [Dodecyl(dimethyl)(1H-imidazol-1-ylmethyl)silane]
- pest or weed control at 100 ppm (Venturia inaequalis): 0%
- pest or weed control at 100 ppm (Helminthosporium maydis): 0%
- Phytotoxic burn (apple seedlings): B
- pest or weed control at 200 ppm (Erysiphe graminis; 200 ppm): 100%
- pest or weed control at 400 ppm [3]: 80%
- pest or weed control at 100 ppm (Erysiphe cichoracearum): 55%
